For the test, the system named is HIV-1 single-round infectious reporter virus. The test is described as follows: Single-round infectious HIV-1 luciferase reporter virus infection of HeLa CD4 cells (antiviral EC50). The format is cell-based. The note with it: Human immunodeficiency virus 1, HeLa, read-out: EC50 Group from Table 3. The essentials: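 Compound (≤10 μM final, 10 concentrations) was added to HeLa CD4 cells together with luciferase-reporter HIV-1 pseudovirus (nef replaced by luciferase, envelope supplied in trans) at MOI ~0.01. Cells were lysed 72 h post-infection at 37 °C for luminescence; percent inhibition versus untreated infection, fitted four-parameter logistic for EC50.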

These results are taken from patent US7807676B2, “Diketo-Piperazine and Piperidine derivatives as antiviral agents” (priority 2006, dated 2010).

As for `O=C(C(=O)N1CCN(c2cn[nH]c2-c2ccccn2)CC1)c1c[nH]c2c(-n3ccnn3)ncc(F)c12` [E-16, 1-(4-fluoro-7-(1H-1,2,3-triazol-1-yl)-1H-pyrrolo[2,3-c]pyridinyl-3-yl)-2-(4-(3-(pyridin-2-yl)-1H-pyrazol-4-yl)piperazin-1-yl)ethane-1,2-dione], the EC50 (usually the concentration that produces a half-maximal response) is less than 500 nM.
Turning to `COc1cnc(-n2cnc(C)n2)c2[nH]cc(C(=O)C(=O)N3CCN(c4cn[nH]c4-c4ccccn4)CC3)c12` [E-17, 1-(4-methoxy-7-(3-methyl-1H-1,2,4-triazol-1-yl)-1H-pyrrolo[2,3-c]pyridinyl-3-yl)-2-(4-(3-(pyridin-2-yl)-1H-pyrazol-4-yl)piperazin-1-yl)ethane-1,2-dione], the EC50 was less than 500 nM.
In the case of `CN1CCN(C(=O)c2cc(-c3ncc(F)c4c(C(=O)C(=O)N5CCN(c6nnnn6-c6ccccc6)CC5)c[nH]c34)n[nH]2)CC1` [F-1] it was less than 500 nM; in that of `CN1CCC(N(C)C(=O)c2cc(-c3ncc(F)c4c(C(=O)C(=O)N5CCN(c6nnnn6-c6ccccc6)CC5)c[nH]c34)n[nH]2)C1` (centres unmarked) [F-2], less than 500 nM.
As for `O=C(C(=O)N1CCN(c2nnnn2-c2ccccc2)CC1)c1c[nH]c2c(-c3cc(C(=O)N4CC[C@@H](O)C4)[nH]n3)ncc(F)c12` [F-3], the EC50 is less than 500 nM.
In the case of `O=C(C(=O)N1CCN(c2nnnn2-c2ccccc2)CC1)c1c[nH]c2c(-c3cc(C(=O)N4CCN(C(=O)C5CCCO5)CC4)[nH]n3)ncc(F)c12` (centres unmarked) [F-4], the EC50 was less than 500 nM.
Turning to `CC(=O)N1CCN(C(=O)c2cc(-c3ncc(F)c4c(C(=O)C(=O)N5CCN(c6nnnn6-c6ccccc6)CC5)c[nH]c34)n[nH]2)CC1` [F-5], the EC50 is less than 500 nM.
The figure for `O=C(C(=O)N1CCN(c2nnnn2-c2ccccc2)CC1)c1c[nH]c2c(-c3cc(C(=O)N4CCC[C@H]4CO)[nH]n3)ncc(F)c12` [F-6] is less than 500 nM.
In the case of `O=C(C(=O)N1CCN(c2nnnn2-c2ccccc2)CC1)c1c[nH]c2c(-c3cc(C(=O)N4CCN(CCN5CCOCC5)CC4)[nH]n3)ncc(F)c12` [F-7], the EC50 is less than 500 nM.
Consider `O=C(C(=O)N1CCN(c2nnnn2-c2ccccc2)CC1)c1c[nH]c2c(-c3cc(C(=O)N4CCN(CCO)CC4)[nH]n3)ncc(F)c12` [F-8], for which the EC50 was less than 500 nM.
The figure for `CCN(C)C(=O)c1cc(-c2ncc(F)c3c(C(=O)C(=O)N4CCN(c5nnnn5-c5ccccc5)CC4)c[nH]c23)n[nH]1` [F-9] is less than 500 nM; for `O=C(C(=O)N1CCN(c2nnnn2-c2ccccc2)CC1)c1c[nH]c2c(-c3cc(C(=O)N4CCSC4)[nH]n3)ncc(F)c12` [F-10] it is less than 500 nM.
In the case of `O=C(C(=O)N1CCN(c2nnnn2-c2ccccc2)CC1)c1c[nH]c2c(-c3cc(C(=O)N4CCCC(O)C4)[nH]n3)ncc(F)c12` (centres unmarked) [F-11], the EC50 is less than 500 nM.
As to `O=C(NCCCN1CCCC1=O)c1cc(-c2ncc(F)c3c(C(=O)C(=O)N4CCN(c5nnnn5-c5ccccc5)CC4)c[nH]c23)n[nH]1` [F-12], the EC50 was less than 500 nM.
Turning to `CN1CCCC1CCNC(=O)c1cc(-c2ncc(F)c3c(C(=O)C(=O)N4CCN(c5nnnn5-c5ccccc5)CC4)c[nH]c23)n[nH]1` (centres unmarked) [F-13], the EC50 is less than 500 nM.
As to `CC(=O)NCCNC(=O)c1cc(-c2ncc(F)c3c(C(=O)C(=O)N4CCN(c5nnnn5-c5ccccc5)CC4)c[nH]c23)n[nH]1` [F-14], the EC50 was less than 500 nM.
For the compound `COCCN1CCN(C(=O)c2cc(-c3ncc(F)c4c(C(=O)C(=O)N5CCN(c6nnnn6-c6ccccc6)CC5)c[nH]c34)n[nH]2)CC1` [F-15], the EC50 was less than 500 nM.
With `O=C(C(=O)N1CCN(c2nnnn2-c2ccccc2)CC1)c1c[nH]c2c(-c3cc(C(=O)N4CCC(O)CC4)[nH]n3)ncc(F)c12` [F-16], the EC50 is less than 500 nM.
In the case of `COc1cnc(-n2cnc(C)n2)c2[nH]cc(C(=O)C(=O)N3CCN(c4nonc4-c4ccccc4)CC3)c12` [G-1a], the concentration giving a half-maximal response (EC50) is less than 500 nM.
Consider `O=C(C(=O)N1CCN(c2nonc2-c2ccccc2)CC1)c1c[nH]c2c(-n3ccnn3)ncc(F)c12` [G-1b], for which the EC50 is less than 500 nM.
On to `COc1cnc(-c2cnc(N3CCN(C)CC3)cn2)c2[nH]cc(C(=O)C(=O)N3CCN(c4nnnn4-c4ccccc4)CC3)c12` [G-2a], for which the EC50 is less than 500 nM.
In the case of `COc1cnc(-c2cnc(N3CCOCC3)cn2)c2[nH]cc(C(=O)C(=O)N3CCN(c4nnnn4-c4ccccc4)CC3)c12` [G-2b] it was less than 500 nM.
As to `COc1cnc(-c2cnc(-n3ccnc3)cn2)c2[nH]cc(C(=O)C(=O)N3CCN(c4nnnn4-c4ccccc4)CC3)c12` [G-2c], the EC50 was less than 500 nM.
On to `COc1cnc(-n2cnc(C)n2)c2[nH]cc(C(=O)C(=O)N3CCN(c4ncccc4-c4ccccc4)CC3)c12` [G-3a], for which the EC50 was less than 500 nM.
In the case of `O=C(C(=O)N1CCN(c2ncccc2-c2ccccc2)CC1)c1c[nH]c2c(-n3ccnn3)ncc(F)c12` [G-3b] it was less than 500 nM; in that of `CN(C)c1nc(N2CCN(C(=O)C(=O)c3c[nH]c4c(-n5ccnn5)ncc(F)c34)CC2)n(-c2ccccc2)n1` [G-4a], less than 500 nM.
As to `COc1cnc(-n2cnc(C)n2)c2[nH]cc(C(=O)C(=O)N3CCN(c4nc(N(C)C)nn4-c4ccccc4)CC3)c12` [G-4b], the EC50 was less than 500 nM.
`CN(C)c1nc(N2CCN(C(=O)C(=O)c3c[nH]c4c(-n5ccnn5)ncc(F)c34)CC2)nn1-c1ccccc1` [G-4c]: the EC50 was more than 500 nM.
The figure for `COc1cnc(-n2cnc(C)n2)c2[nH]cc(C(=O)C(=O)N3CCN(c4nc(N(C)C)n(-c5ccccc5)n4)CC3)c12` [G-4d] is less than 500 nM; for `O=C(C(=O)N1CCN(c2c[nH]nc2-c2ccccc2)CC1)c1c[nH]c2c(-n3ccnn3)ncc(F)c12` [G-5a] it is less than 500 nM; for `COc1cnc(-n2cnc(C)n2)c2[nH]cc(C(=O)C(=O)N3CCN(c4c[nH]nc4-c4ccccc4)CC3)c12` [G-5b] it is less than 500 nM.
As to `COc1cnc(-n2cnc(C)n2)c2[nH]cc(C(=O)C(=O)N3CCN(c4cn(CCN(C)C)nc4-c4ccccc4)CC3)c12` [G-6a], the EC50 is less than 500 nM.
In the case of `CN(C)CCn1cc(N2CCN(C(=O)C(=O)c3c[nH]c4c(-n5ccnn5)ncc(F)c34)CC2)c(-c2ccccc2)n1` [G-6b] it was less than 500 nM; in that of `COc1cnc(-n2cnc(C)n2)c2[nH]cc(C(=O)C(=O)N3CCN(c4cn(Cc5ccccn5)nc4-c4ccccc4)CC3)c12` [G-7a], less than 500 nM.
On to `O=C(C(=O)N1CCN(c2cn(Cc3ccccn3)nc2-c2ccccc2)CC1)c1c[nH]c2c(-n3ccnn3)ncc(F)c12` [G-7b], for which the EC50 was less than 500 nM.
The figure for `O=C(C(=O)N1CCN(c2[nH]nnc2-c2ccccc2)CC1)c1c[nH]c2c(-n3ccnn3)ncc(F)c12` [G-8a] is less than 500 nM.
Consider `COc1cnc(-n2cnc(C)n2)c2[nH]cc(C(=O)C(=O)N3CCN(c4[nH]nnc4-c4ccccc4)CC3)c12` [G-8b], for which the EC50 is less than 500 nM.
For the compound `COc1cnc(-n2cnc(C)n2)c2[nH]cc(C(=O)C(=O)N3CCN(c4ccnn4-c4ccccc4)CC3)c12` [G-9a], the EC50 is less than 500 nM.
For `O=C(C(=O)N1CCN(c2ccnn2-c2ccccc2)CC1)c1c[nH]c2c(-n3ccnn3)ncc(F)c12` [G-9b], the EC50 is less than 500 nM.
Turning to `O=C(C(=O)N1CCC(N2CCN=C2c2ccccc2)CC1)c1c[nH]c2c(-n3ccnn3)ncc(F)c12` [G-10a], the EC50 was more than 500 nM.
In the case of `COc1cnc(-n2cnc(C)n2)c2[nH]cc(C(=O)C(=O)N3CCC(N4CCN=C4c4ccccc4)CC3)c12` [G-10b] it was more than 500 nM.
`O=C(C(=O)N1CCC(n2ccnc2-c2ccccc2)CC1)c1c[nH]c2c(-n3ccnn3)ncc(F)c12` [G-11a]: the EC50 is less than 500 nM.
As for `COc1cnc(-n2cnc(C)n2)c2[nH]cc(C(=O)C(=O)N3CCC(n4ccnc4-c4ccccc4)CC3)c12` [G-11b], the EC50 was more than 500 nM.
In the case of `O=C(C(=O)N1CCN(C2=NCCN2c2ccccc2)CC1)c1c[nH]c2c(-n3ccnn3)ncc(F)c12` [G-12a], the EC50 was less than 500 nM.
Turning to `COc1cnc(-n2cnc(C)n2)c2[nH]cc(C(=O)C(=O)N3CCN(C4=NCCN4c4ccccc4)CC3)c12` [G-12b], the EC50 is less than 500 nM.
For `Cn1ncc(N2CCN(C(=O)C(=O)c3c[nH]c4c(-n5ccnn5)ncc(F)c34)CC2)c1-c1ccccc1` [G-13a], the EC50 was less than 500 nM.
`COc1cnc(-n2cnc(C)n2)c2[nH]cc(C(=O)C(=O)N3CCN(c4cnn(C)c4-c4ccccc4)CC3)c12` [G-13b]: the EC50 was less than 500 nM.
As for `CN(C)c1cc(N2CCN(C(=O)C(=O)c3c[nH]c4c(-n5ccnn5)ncc(F)c34)CC2)c(-c2ccccc2)nn1` [G-14a], the EC50 was less than 500 nM.
As to `COc1cnc(-n2cnc(C)n2)c2[nH]cc(C(=O)C(=O)N3CCN(c4cc(N(C)C)nnc4-c4ccccc4)CC3)c12` [G-14b], the EC50 was less than 500 nM.
The figure for `O=C(C(=O)N1CCN(c2ccnnc2-c2ccccc2)CC1)c1c[nH]c2c(-n3ccnn3)ncc(F)c12` [G-15a] is less than 500 nM; for `COc1cnc(-n2cnc(C)n2)c2[nH]cc(C(=O)C(=O)N3CCN(c4ccnnc4-c4ccccc4)CC3)c12` [G-15b] it is less than 500 nM.
Regarding `O=C(C(=O)N1CCN(c2cn(CCN3CCOCC3)nc2-c2ccccc2)CC1)c1c[nH]c2c(-n3ccnn3)ncc(F)c12` [G-16], the EC50 is less than 500 nM.
The figure for `O=C(C(=O)N1CCC(C2=NCCN2c2ccccc2)CC1)c1c[nH]c2c(-n3ccnn3)ncc(F)c12` [G-17a] is more than 500 nM; for `COc1cnc(-n2cnc(C)n2)c2[nH]cc(C(=O)C(=O)N3CCC(C4=NCCN4c4ccccc4)CC3)c12` [G-17b] it is less than 500 nM; for `O=C(C(=O)N1CCC(c2nccn2-c2ccccc2)CC1)c1c[nH]c2c(-n3ccnn3)ncc(F)c12` [G-18a] it is less than 500 nM.
Turning to `COc1cnc(-n2cnc(C)n2)c2[nH]cc(C(=O)C(=O)N3CCC(c4nccn4-c4ccccc4)CC3)c12` [G-18b], the EC50 is less than 500 nM.
In the case of `O=C(C(=O)N1CCN(c2cncnc2-c2ccccc2)CC1)c1c[nH]c2c(-n3ccnn3)ncc(F)c12` [G-19a] it was less than 500 nM.
Take `COc1cnc(-n2cnc(C)n2)c2[nH]cc(C(=O)C(=O)N3CCN(c4cncnc4-c4ccccc4)CC3)c12` [G-19b]: the EC50 was less than 500 nM.
Regarding `CCOC(=O)Cn1cc(N2CCN(C(=O)C(=O)c3c[nH]c4c(-n5ccnn5)ncc(F)c34)CC2)c(-c2ccccc2)n1` [G-20], the EC50 was less than 500 nM.
